What was measured:
EGFR (ErbB1) = biological target: T1, EGFR (ErbB1) (Homo sapiens, UniProt P00533); experiment: Z'-LYTE kinase inhibition assay, EGFR; format: biochemical; conditions: read-out: IC50 against EGFR
T1 construct: purchased Invitrogen
Experimental: Inhibitory activities of compounds against BTK, EGFR and EGFR mutants (EGFR L858R, EGFR T790M, EGFR L858R/T790M), FGFR1, FGFR2, JAK2, JAK3 and KDR were measured by Invitrogen using Z'-LYTE® Method as briefly described in the following. Test Compounds are screened in 1% DMSO (final) in the well. For 10 point titrations, 3-fold serial dilutions are conducted from the starting concentration. All ATP Solutions are diluted to a 4× working concentration in Kinase Buffer (50 mM HEPES pH 7.5, 0.01% BRIJ-35, 10 mM MgCl2, 1 mM EGTA). Peptide/Kinase Mixtures are diluted to a 2× working concentration in the appropriate Kinase Buffers as described below. (i) Peptide/Kinase Mixtures for measurement of EGFR (ErbB1): The 2× EGFR (ErbB1)/[…] mixture is prepared in 50 mM HEPES pH 7.5, 0.01% BRIJ-35, 10 mM MgCl2, 4 mM MnCl2, 1 mM EGTA, 2 mM DTT. The final 10 μL Kinase Reaction consists of 1.1-5.25 ng EGFR (ErbB1) and 2 μM […] in 50 mM HEPES pH 7.5, 0.01% BRIJ-35, 10 mM MgCl2, 2 mM MnCl2, 1 mM EGTA, 1 mM DTT. After the 1 hour Kinase Reaction incubation, 5 μL of a 1:64 dilution of Development Reagent B is added. Reaction starts by 30-second shaking of mixture consisting of 2.5 μL 4× test compound, 5 μL 2× kinase reaction mixture and 2.5 μL 4× ATP Solution on Bar-coded Corning, low volume NBS, black 384-well plate (Corning Cat. #3676). Then the mixture is incubated for 60-minute at room temperature for the kinase reaction, followed by addition of 5 μL of a 1:1024 dilution of development reagent A and 30-second plate shake. The mixture is then incubated for another 60-minute at room temperature for development reaction. Finally fluorescence is read by plate reader. To determine IC50 of a compound against EGFR, EGFR mutant and other kinases, a series of concentrations of the compound were tested for the inhibition.

KDR (VEGFR2) = biological target: T2, KDR (VEGFR2) (Homo sapiens, UniProt P35968); experiment: Z'-LYTE kinase inhibition assay, KDR; format: biochemical; conditions: read-out: IC50 against KDR
T2 construct: purchased Invitrogen
Experimental: (§1) Inhibitory activities of compounds against BTK, EGFR and EGFR mutants (EGFR L858R, EGFR T790M, EGFR L858R/T790M), FGFR1, FGFR2, JAK2, JAK3 and KDR were measured by Invitrogen using Z′-LYTE® Method as briefly described in the following.
(§2) Test Compounds are screened in 1% DMSO (final) in the well. For 10 point titrations, 3-fold serial dilutions are conducted from the starting concentration. All ATP Solutions are diluted to a 4× working concentration in Kinase Buffer (50 mM HEPES pH 7.5, 0.01% BRIJ-35, 10 mM MgCl2, 1 mM EGTA). Peptide/Kinase Mixtures are diluted to a 2× working concentration in the appropriate Kinase Buffers as described below.
(v) Peptide/Kinase Mixtures for measurement of KDR (VEGFR2):
The 2× KDR (VEGFR2)/Tyr 01 mixture is prepared in 50 mM HEPES pH 7.5, 0.01% BRIJ-35, 10 mM MgCl2, 1 mM EGTA. The final 10 μL Kinase Reaction consists of 0.5-11.7 ng KDR (VEGFR2) and 2 μM Tyr Olin 50 mM HEPES pH 7.5, 0.01% BRIJ-35, 10 mM MgCl2, 1 mM EGTA. After the 1 hour Kinase Reaction incubation, 5 μL of a 1:256 dilution of Development Reagent B is added.
(§3) Reaction starts by 30-second shaking of mixture consisting of 2.5 μL 4× test compound, 5 μL 2× kinase reaction mixture and 2.5 μL 4× ATP Solution on Bar-coded Corning, low volume NBS, black 384-well plate (Corning Cat. #3676). Then the mixture is incubated for 60-minute at room temperature for the kinase reaction, followed by addition of 5 μL of a 1:1024 dilution of development reagent A and 30-second plate shake. The mixture is then incubated for another 60-minute at room temperature for development reaction. Finally fluorescence is read by plate reader.
(§4) To determine IC50 of a compound against EGFR, EGFR mutant and other kinases, a series of concentrations of the compound were tested for the inhibition. […] The scale utilized in Table 4 is as follows: +++ less than 100 nM, ++100-500 nM and + greater than 500 nM.

FGFR1 = biological target: T3, FGFR1 (Homo sapiens, UniProt P11362); experiment: Z'-LYTE kinase inhibition assay, FGFR1; format: biochemical; conditions: read-out: IC50 against FGFR1
T3 construct: purchased Invitrogen
Experimental: as §1, §2
(v) Peptide/Kinase Mixtures for measurement of FGFR1:
(§5) The 2× FGFR1/Tyr 04 mixture is prepared in 50 mM HEPES pH 7.5, 0.01% BRIJ-35, 10 mM MgCl2, 4 mM MnCl2, 1 mM EGTA, 2 mM DTT. The final 10 μL Kinase Reaction consists of 0.41-3.5 ng FGFR1 and 2 μM Tyr 04 in 50 mM HEPES pH 7.5, 0.01% BRIJ-35, 10 mM MgCl2, 2 mM MnCl2, 1 mM EGTA, 1 mM DTT. After the 1 hour Kinase Reaction incubation, 5 μL of a 1:64 dilution of Development Reagent B is added.
as §3, §4

FGFR2 = biological target: T4, FGFR2 (Homo sapiens, UniProt P21802); experiment: Z'-LYTE kinase inhibition assay, FGFR2; format: biochemical; conditions: read-out: IC50 against FGFR2
T4 construct: purchased Invitrogen
Experimental: as §1, §2
(v) Peptide/Kinase Mixtures for measurement of FGFR2:
as §5, with “FGFR2/Tyr” for “FGFR1/Tyr”, “0.19-2.36” for “0.41-3.5”, “FGFR2” for “FGFR1”
as §3, §4

H1299 cells = experiment: Inhibition of cancer cell growth, MTT assay, H1299; conditions: Homo sapiens, NCI-H1299, 72 h, read-out: IC50 in H1299 cells
Experimental: Inhibition of cell growth by compounds was measured using MTT assay (Mosmann, T., Journal of Immunological Methods, 1983, 65, 55-63). Tumor cell lines were purchased from ATCC (American Type Culture Collection, Manassas, Va.). All cell lines were maintained in RPMI 1640 (Hyclone) supplemented with 10% fetal bovine serum (FBS, Hyclone), glutamine (2 mM, Hyclone), and antibiotics (penicillin 100 U/mL and streptomycin 50 μg/mL) at 37° C. in a humidified atmosphere of 5% CO2 in air. Taxol (as a positive control, Sigma) and compounds were dissolved in DMSO (Sigma), and the final concentration of DMSO in the medium was 1%. Tumor cells were plated in 96-well plates at densities of about 4000 cells/well of a 96-well plate and allowed to adhere/grow for 24 h. They were then treated with various concentrations of drug for 72 h. […] The number of cells remaining after 72 h was compared to the number of viable cells at the time of compound addition by measuring the absorbance at 570 nm, allowing for the calculation of growth inhibition.
All concentrations of compounds were tested in triplicate and controls were averaged over 4 wells. IC50 was calculated by plotting the concentration of compound vs the percentage of inhibition in treated wells using GraphPad Prism 5. […]

T1 sequence (P00533 25-1210): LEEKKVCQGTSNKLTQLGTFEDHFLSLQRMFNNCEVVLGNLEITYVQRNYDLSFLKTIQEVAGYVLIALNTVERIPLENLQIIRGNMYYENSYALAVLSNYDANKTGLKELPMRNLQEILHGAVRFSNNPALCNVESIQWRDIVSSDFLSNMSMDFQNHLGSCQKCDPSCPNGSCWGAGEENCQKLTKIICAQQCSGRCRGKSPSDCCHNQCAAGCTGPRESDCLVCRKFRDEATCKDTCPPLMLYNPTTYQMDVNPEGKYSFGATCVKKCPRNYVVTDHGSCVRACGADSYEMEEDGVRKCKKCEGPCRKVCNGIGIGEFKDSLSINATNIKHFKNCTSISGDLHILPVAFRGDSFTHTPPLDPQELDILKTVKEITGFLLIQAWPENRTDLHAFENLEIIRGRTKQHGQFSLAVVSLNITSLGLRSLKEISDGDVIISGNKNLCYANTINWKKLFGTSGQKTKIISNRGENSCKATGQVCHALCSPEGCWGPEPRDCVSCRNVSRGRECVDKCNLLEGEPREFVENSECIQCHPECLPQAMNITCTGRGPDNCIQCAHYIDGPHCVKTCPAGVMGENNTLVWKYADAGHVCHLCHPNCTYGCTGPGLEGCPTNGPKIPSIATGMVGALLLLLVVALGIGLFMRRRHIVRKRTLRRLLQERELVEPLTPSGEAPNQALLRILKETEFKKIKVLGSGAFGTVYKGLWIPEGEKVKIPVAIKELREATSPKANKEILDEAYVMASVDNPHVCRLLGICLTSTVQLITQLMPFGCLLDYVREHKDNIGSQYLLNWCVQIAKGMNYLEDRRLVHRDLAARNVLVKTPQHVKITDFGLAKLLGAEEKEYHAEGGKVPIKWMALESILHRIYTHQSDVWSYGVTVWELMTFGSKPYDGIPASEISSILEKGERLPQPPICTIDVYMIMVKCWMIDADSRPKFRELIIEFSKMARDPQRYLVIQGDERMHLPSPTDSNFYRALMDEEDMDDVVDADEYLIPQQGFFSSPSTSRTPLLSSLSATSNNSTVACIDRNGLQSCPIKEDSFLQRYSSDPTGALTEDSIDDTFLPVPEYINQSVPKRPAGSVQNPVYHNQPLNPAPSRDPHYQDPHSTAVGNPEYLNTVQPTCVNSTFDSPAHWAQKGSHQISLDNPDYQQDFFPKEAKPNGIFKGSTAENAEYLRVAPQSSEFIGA
T3 sequence (P11362 22-822): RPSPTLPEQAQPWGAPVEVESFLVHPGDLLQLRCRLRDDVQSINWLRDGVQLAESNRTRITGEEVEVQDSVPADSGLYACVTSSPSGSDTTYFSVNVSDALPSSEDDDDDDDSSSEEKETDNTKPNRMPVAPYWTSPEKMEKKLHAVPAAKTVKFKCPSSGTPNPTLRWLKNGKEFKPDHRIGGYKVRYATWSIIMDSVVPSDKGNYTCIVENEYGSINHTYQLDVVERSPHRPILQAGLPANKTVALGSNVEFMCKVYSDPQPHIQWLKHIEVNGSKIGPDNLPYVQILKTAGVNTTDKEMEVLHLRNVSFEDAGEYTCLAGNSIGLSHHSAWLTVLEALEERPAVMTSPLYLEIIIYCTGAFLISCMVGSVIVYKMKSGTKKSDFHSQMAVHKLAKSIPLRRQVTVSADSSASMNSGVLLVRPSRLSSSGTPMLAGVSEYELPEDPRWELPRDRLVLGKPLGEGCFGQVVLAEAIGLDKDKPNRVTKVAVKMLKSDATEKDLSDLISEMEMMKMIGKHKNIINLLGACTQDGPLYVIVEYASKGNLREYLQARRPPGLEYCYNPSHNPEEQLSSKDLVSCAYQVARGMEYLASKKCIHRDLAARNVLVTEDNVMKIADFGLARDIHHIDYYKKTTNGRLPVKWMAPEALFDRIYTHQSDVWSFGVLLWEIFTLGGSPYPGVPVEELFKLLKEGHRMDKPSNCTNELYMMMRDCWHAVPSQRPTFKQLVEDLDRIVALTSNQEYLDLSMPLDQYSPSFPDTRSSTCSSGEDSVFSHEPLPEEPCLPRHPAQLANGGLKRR
T4 sequence (P21802 22-821): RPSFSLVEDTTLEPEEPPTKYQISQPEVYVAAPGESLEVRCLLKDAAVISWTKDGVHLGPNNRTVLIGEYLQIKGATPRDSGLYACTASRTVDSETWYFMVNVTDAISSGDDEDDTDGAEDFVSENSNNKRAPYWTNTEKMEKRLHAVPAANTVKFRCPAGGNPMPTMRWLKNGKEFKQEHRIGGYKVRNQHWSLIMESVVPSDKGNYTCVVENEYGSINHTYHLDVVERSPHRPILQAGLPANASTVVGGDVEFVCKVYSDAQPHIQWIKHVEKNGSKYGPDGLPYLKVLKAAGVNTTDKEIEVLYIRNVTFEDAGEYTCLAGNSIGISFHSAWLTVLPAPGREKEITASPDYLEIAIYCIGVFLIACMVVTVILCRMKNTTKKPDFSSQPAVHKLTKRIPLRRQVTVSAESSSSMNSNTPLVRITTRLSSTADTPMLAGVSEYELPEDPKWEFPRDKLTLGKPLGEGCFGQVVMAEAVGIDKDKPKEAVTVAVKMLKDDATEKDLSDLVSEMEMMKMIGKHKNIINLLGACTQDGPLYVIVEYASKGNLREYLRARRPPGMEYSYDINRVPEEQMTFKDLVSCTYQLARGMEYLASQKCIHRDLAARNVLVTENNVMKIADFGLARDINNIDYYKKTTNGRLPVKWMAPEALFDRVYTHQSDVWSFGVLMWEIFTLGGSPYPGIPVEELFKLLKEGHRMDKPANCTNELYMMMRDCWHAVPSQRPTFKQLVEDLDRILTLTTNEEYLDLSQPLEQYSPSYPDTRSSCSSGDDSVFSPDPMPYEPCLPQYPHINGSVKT
T2 sequence (P35968 20-1356): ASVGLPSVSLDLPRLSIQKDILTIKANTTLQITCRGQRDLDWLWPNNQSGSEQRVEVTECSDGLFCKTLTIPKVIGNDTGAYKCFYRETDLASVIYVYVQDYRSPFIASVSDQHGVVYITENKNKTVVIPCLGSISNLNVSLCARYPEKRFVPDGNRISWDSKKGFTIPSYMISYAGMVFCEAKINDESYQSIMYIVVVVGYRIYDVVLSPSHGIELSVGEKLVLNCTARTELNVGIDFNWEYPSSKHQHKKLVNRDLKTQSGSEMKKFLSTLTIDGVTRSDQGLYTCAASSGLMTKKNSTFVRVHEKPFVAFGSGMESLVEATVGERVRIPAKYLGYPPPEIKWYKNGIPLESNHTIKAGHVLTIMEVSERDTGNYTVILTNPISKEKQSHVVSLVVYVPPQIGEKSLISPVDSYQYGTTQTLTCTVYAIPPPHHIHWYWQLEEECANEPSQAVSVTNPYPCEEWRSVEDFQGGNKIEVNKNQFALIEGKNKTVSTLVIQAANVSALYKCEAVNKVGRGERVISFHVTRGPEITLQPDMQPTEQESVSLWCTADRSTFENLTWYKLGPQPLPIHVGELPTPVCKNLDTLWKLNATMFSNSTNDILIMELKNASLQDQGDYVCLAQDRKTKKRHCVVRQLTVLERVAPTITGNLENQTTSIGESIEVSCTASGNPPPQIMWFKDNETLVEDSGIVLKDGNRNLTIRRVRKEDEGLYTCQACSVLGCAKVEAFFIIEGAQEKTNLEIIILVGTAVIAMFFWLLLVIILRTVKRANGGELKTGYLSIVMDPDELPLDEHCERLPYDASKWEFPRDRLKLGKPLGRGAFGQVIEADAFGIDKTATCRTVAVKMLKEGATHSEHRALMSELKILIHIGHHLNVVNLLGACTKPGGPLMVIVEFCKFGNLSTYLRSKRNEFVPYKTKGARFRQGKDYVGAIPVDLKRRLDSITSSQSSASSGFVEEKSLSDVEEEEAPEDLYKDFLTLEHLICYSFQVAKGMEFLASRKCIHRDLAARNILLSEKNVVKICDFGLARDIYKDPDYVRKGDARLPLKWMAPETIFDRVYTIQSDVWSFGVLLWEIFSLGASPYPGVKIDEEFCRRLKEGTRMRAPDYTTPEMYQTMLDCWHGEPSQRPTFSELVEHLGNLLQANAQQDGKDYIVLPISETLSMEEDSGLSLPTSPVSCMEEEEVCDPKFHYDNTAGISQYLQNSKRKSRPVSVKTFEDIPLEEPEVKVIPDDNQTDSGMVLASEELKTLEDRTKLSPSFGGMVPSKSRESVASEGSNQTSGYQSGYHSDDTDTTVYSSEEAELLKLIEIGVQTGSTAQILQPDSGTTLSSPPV

Row | SMILES | IC50 (KDR (VEGFR2)) [nM] | IC50 (FGFR1) [nM] | IC50 (FGFR2) [nM] | IC50 (EGFR (ErbB1)) [nM] | other results
1 | C=CC(=O)Nc1cccc(-c2cccc3cnc(Nc4ccc(N5CCN(C(C)=O)CC5)cc4)nc23)c1 [Example C032, N-(3-(2-((4-(4-acetylpiperazin-1-yl)phenyl)amino)quinazolin-8-yl)phenyl)acrylamide] |  |  |  | 100 to 500 | 
2 | C=CC(=O)Nc1cccc(-c2cccc3cnc(Nc4ccc(OC5CCN(C)CC5F)cc4)nc23)c1 (centres unmarked) [Example C079, N-(3-(2-((4-((3-fluoro-1-methylpiperidin-4-yl)oxy)phenyl)amino)quinazolin-8-yl)phenyl)acrylamide] |  |  |  | 100 to 500 | 
3 | C=CC(=O)Nc1cccc(-c2cccc3cnc(Nc4ccc(N5CCN(C)CC5)c(C(N)=O)c4)nc23)c1 [Example C085, 5-((8-(3-acrylamidophenyl)quinazolin-2-yl)amino)-2-(4-methylpiperazin-1-yl)benzamide] |  |  |  | 100 to 500 | 
4 | C=CC(=O)Nc1cccc(-c2cccc3cnc(Nc4ccc(OCCO)cc4)nc23)c1 [Example C108, N-(3-(2-((4-(2-hydroxyethoxy)phenyl)amino)quinazolin-8-yl)phenyl)acrylamide] |  |  |  | 100 to 500 | 
5 | C=CC(=O)Nc1cccc(-c2cccc3cnc(Nc4cc(F)c(N5CCN(C)CC5)c(F)c4)nc23)c1 [Example C146, N-(3-(2-((3,5-difluoro-4-(4-methylpiperazin-1-yl)phenyl)amino)quinazolin-8-yl)phenyl)acrylamide] |  |  |  |  | IC50 (H1299 cells): < 100 nM

Second part, led by results:

Row | IC50 (KDR (VEGFR2)) [nM] | IC50 (FGFR1) [nM] | IC50 (FGFR2) [nM] | SMILES | IC50 (EGFR (ErbB1)) [nM] | other results
6 | 100 to 500 | 100 to 500 |  | C=CC(=O)Nc1cccc(-c2cccc3cnc(Nc4ccc(N5CCN(C)CC5)cc4F)nc23)c1 [Example C044, N-(3-(2-((2-fluoro-4-(4-methylpiperazin-1-yl)phenyl)amino)quinazolin-8-yl)phenyl)acrylamide] |  | 
7 |  |  | 100 to 500 | C=CC(=O)Nc1cccc(-c2cccc3cnc(Nc4ccc(N5CCN(CCO)CC5)cc4)nc23)c1 [Example C059, N-(3-(2-((4-(4-(2-hydroxyethyl)piperazin-1-yl)phenyl)amino)quinazolin-8-yl)phenyl)acrylamide] |  | 
8 | 100 to 500 | 100 to 500 | 100 to 500 | C=CC(=O)Nc1cccc(-c2cccc3cnc(Nc4ccc(N5CCN(CCO)CC5)cc4F)nc23)c1 [Example C147, N-(3-(2-((2-fluoro-4-(4-(2-hydroxyethyl)piperazin-1-yl)phenyl)amino)quinazolin-8-yl)phenyl)acrylamide] |  | 
9 | 100 to 500 | 100 to 500 | 100 to 500 | C=CC(=O)Nc1cccc(-c2cccc3cnc(Nc4ccc(N5CCN(CCO)CC5)c(F)c4F)nc23)c1 [Example C151, N-(3-(2-((2,3-difluoro-4-(4-(2-hydroxyethyl)piperazin-1-yl)phenyl)amino)quinazolin-8-yl)phenyl)acrylamide] |  | 
